According to patent US8268856B2, “Method to use compositions having antidepressant anxiolytic and other neurological activity and compositions of matter” (priority 2007, dated 2012):

Experiments:
[1] = system: male Swiss Webster mice; test: Porsolt forced swim test (FST); type: in vivo, mouse; details: male Swiss Webster mice, IP, immobility during last 4 min of 6 min swim, versus vehicle
Protocol: (§1) Locomotor Activity and the FST. To evaluate the isolated compounds for antidepressant-like activity, male Swiss Webster mice (Harlan, Indianapolis, Ind.) (25-30 g weight) were used. Animals were housed in groups of five with a 12 h light/12 h dark cycle. Food and water were provided at libitum. All procedures involving animals were performed as approved by the Institutional Animal Care and Use Committee of the University of Mississippi. Animals were randomly divided into groups (n=6-10/group). Each group was injected IP with either the compound (1-20 mg/kg), desipramine (20 mg/kg), or vehicle (saline, 10% ethanol or 10% ethanol/1% DMSO). Following injection, locomotor activity was monitored using an automated activity monitoring system (San Diego Instruments, San Diego, Calif.). Each mouse was placed in a Plexiglas enclosure and locomotor activity was recorded as the number of photobeam interruptions for 30 min after drug injection. The activity for the last ten min was quantified and analyzed. Immediately at the end of the locomotor session, individual mice were subjected to the FST. The mice were individually placed in a clear plastic cylinder (23 cm high, 10 cm internal diameter) filled with deionized water (8 cm high) at 25° C. The mice were recorded with a video camera (positioned at about 30 cm above the cylinder) for a total of 6 min. The total period of immobility during the last 4 min was timed by three independent observers. The mean immobility time was then calculated. A mouse was judged to be immobile when it remained afloat, making only minimal movements to keep its head above water.
For the FST, immobility times of the three independent rates were averaged for each mouse and data were analyzed using one way analysis of variance (ANOVA) followed by Bonferroni Multiple comparison posthoc tests to determine statistical differences from the corresponding vehicle control. Chick distress vocalization data were analyzed by two-way repeated measures ANOVA, one-way ANOVA and simple effects analyses with post-hoc comparisons conducted using Fisher's LSD test. p-Values less than 0.05 were considered statistically significant.
(§2) Porsolt R D, et al. Behavioral Despair In Mice: A Primary Screening Test for Antidepressants, 229 Arch. Int. Pharmacodyn. 327-36 (1977). […] In order to control for false positives, as has been previously observed with psychostimulants, Cryan, J., et al. Assessing Substrates Underlying The Behavioral Effects Of Antidepressants Using The Modified Rat Forced Swimming Test. 29 Neurosci Biobehav Rev. 547-69 (2005) locomotor activity of the animals was monitored using an automated photobeam activity monitoring system. Lucki. I. The Forced Swimming Test As A Model For Core And Component Behavioral Effects Of Antidepressant Drugs. 8 Behav. Pharmacol. 522-32 (1997).

[2] = system: male Swiss Webster mice; test: Locomotor activity test, Swiss Webster mice; type: in vivo, mouse; details: IP, photobeam interruptions, versus vehicle
Protocol: as §1
(§3) Effect of select compounds on locomotor activity. Since reductions in immobility time is the primary criterion to assess antidepressant like activity in both the FST and TST, it is crucial to confirm that the effects observed in both tests are not attributed to specific stimulant action of the tested compounds, which would be reflected as enhancement of the locomotor activity. Accordingly, the effect of tested compounds on locomotor activity was evaluated using an automated activity monitoring system.

[3] = system: serotonin receptors; test: Affinity to serotonin receptors (receptor binding panel); set-up: species or system human or rodent
Protocol: Evaluation of binding affinity of isolated compounds to serotonin receptors. In vitro testing of isolated compounds was completed using a small panel of receptor binding assays and then validated in a comprehensive panel by the NIMH Psychoactive Drug Screening Program. Pharmacological and functional screening of isolated molecules was performed on cloned human or rodent CNS receptors, channels, and transporters. Hu, J-F., et al. New Antiinfective and Human 5-HT2 Receptor Binding Natural and Semisynthetic Compounds from the Jamaican Sponge Smenospongia aurea. 65 Jour. of Nat. Prod. 476-80 (2002).
as §2

[4] = system: HCV; test: Activity against HCV
[5] = system: HIV-1; test: Activity against HIV-1
[6] = system: Mycobacterium tuberculosis; test: Activity against Mycobacterium tuberculosis
[7] = system: DBA2/J mice; test: Locomotor activity test, DBA2/J mice; type: in vivo, mouse; details: versus vehicle
Protocol: as §3
However, Tukey's post-hoc tests confirmed that there were no statistical differences between the vehicle controls, or compounds from their respective vehicle controls (FIG. 10A). […] In DBA2/J mice, the pattern of responding in the locomotor studies was similar to that observed in the Swiss Webster mice (FIG. 10B). […] It is thus evident that the drug/dose combinations that produced antidepressant-like effects in both the FST and TST were not associated with confounding stimulant effects effect of select compounds in chick anxiety/depression model: […]

[8] = system: Male DBA2/J mice; test: Mouse tail suspension test (TST); type: in vivo; details: i.p., versus vehicle
Description: Based on the data collected from the FST, the antidepressant action of aaptamine. 5,6-dibromo-N,N-dimethyltryptamine, and 3-bromotyramine was examined in the mouse tail suspension test (TST), another model highly predictive of antidepressant action. Similar to the FST, this test depends on the depressive behavior elicited by the animals when placed in an inescapable situation, in this case suspending the animal by its tail. Male DBA2/J mice were used for this test.
In fact, higher doses seem to increase immobility time (FIG. 9C). […] However, such effect was only evident at the 40 mg/kg dose (compared to 10 and 20 mg/kg dose in the FST) (FIG. 9D).

Structure (SMILES): Cc1nccc2c1C(C)(C)Nc1cc(Br)ccc1-2 [Veranamine, 8-bromo-4,5,5-trimethyl-5,6-dihydrobenzo[c][2,7]naphthyridine]
- antidepressant-like activity / effect on immobility time in FST [1]: potent antidepressant activity at the dose of 20 mg/kg
- effect on locomotor activity [2]: not the consequence of its stimulant activity
- affinities to serotonin receptors [3]: moderate affinities
- activity against HCV [4]: not active
- activity against HIV-1 [5]: not active
- activity against Mycobacterium tuberculosis [6]: not active

Structure (SMILES): NCCc1ccc(O)c(Br)c1 [216/218, 2-(3′-bromo-4′hydroxyphenol)-ethanamine]
- antidepressant-like activity / effect on immobility time in FST [1]: dose dependent reduction in immobility
- effect on locomotor activity [2]: did not alter the locomotor activity
- effect on locomotor activity [7]: did not alter the locomotor activity
- antidepressant-like action / immobility in tail suspension test [8]: significant antidepressant action
- affinities to serotonin receptors [3]: moderate affinities
